# In patent US20090226527A1, “Particulate-stabilized injectable pharmacutical compositions of posaconazole” (priority 2004, published 2009):
# System: infectious agents (strains tested)
# Experiment: organism not typed
# Assay type: cell-based
compound,measurement,setting,value
CCC(C)n1ncn(-c2ccc(N3CCN(c4ccc(OCC5COC(Cn6cncn6)(c6ccc(Cl)cc6Cl)O5)cc4)CC3)cc2)c1=O (stereo not shown) [Itraconazole],MIC,"Absidia spp, read-out: Geometric Mean MIC",0.229 µg/mL
same,MIC,"Absidia spp, read-out: MIC[90]",0.063 to 2 µg/mL
same,MIC,"Alternaria spp, read-out: Geometric Mean MIC",0.326 µg/mL
same,MIC,"Alternaria spp, read-out: MIC[90]",1 µg/mL
same,MIC,"Apophysomyces spp, read-out: Geometric Mean MIC",0.707 µg/mL
same,MIC,"Apophysomyces spp, read-out: MIC[90]",0.031 to 8 µg/mL
same,MIC,"Arthroderma terrestre, Trichophyton terrestre, read-out: Geometric Mean MIC",0.25 µg/mL
same,MIC,"Arthroderma terrestre, Trichophyton terrestre, read-out: MIC[90]",0.25 µg/mL
same,MIC,"Aspergillus flavus, read-out: Geometric Mean MIC",0.213 µg/mL
same,MIC,"Aspergillus flavus, read-out: MIC[90]",1 µg/mL
same,MIC,"Aspergillus fumigatus, read-out: Geometric Mean MIC",0.397 µg/mL
same,MIC,"Aspergillus fumigatus, read-out: MIC[90]",1 µg/mL
same,MIC,"Aspergillus nidulans, read-out: Geometric Mean MIC",0.186 µg/mL
same,MIC,"Aspergillus nidulans, read-out: MIC[90]",0.5 µg/mL
same,MIC,"Aspergillus niger, read-out: Geometric Mean MIC",0.834 µg/mL
same,MIC,"Aspergillus niger, read-out: MIC[90]",2 µg/mL
same,MIC,"Aspergillus sydowii, read-out: Geometric Mean MIC",0.5 µg/mL
same,MIC,"Aspergillus sydowii, read-out: MIC[90]",0.125 to 2 µg/mL
same,MIC,"Aspergillus terreus, read-out: Geometric Mean MIC",0.229 µg/mL
same,MIC,"Aspergillus terreus, read-out: MIC[90]",0.5 µg/mL
same,MIC,"Aspergillus ustus, read-out: Geometric Mean MIC",0.906 µg/mL
same,MIC,"Aspergillus ustus, read-out: MIC[90]",0.125 to 2 µg/mL
same,MIC,"Bipolaris spp, read-out: Geometric Mean MIC",0.25 µg/mL
same,MIC,"Bipolaris spp, read-out: MIC[90]",0.25 µg/mL
same,MIC,"Bjerkandera adusta, read-out: Geometric Mean MIC",0.057 µg/mL
same,MIC,"Bjerkandera adusta, read-out: MIC[90]",0.063 µg/mL
same,MIC,"Blastomyces dermatitidis, read-out: Geometric Mean MIC",0.045 µg/mL
same,MIC,"Blastomyces dermatitidis, read-out: MIC[90]",2 µg/mL
same,MIC,"Candida albicans, read-out: Geometric Mean MIC",0.064 µg/mL
same,MIC,"Candida albicans, read-out: MIC[90]",0.25 µg/mL
same,MIC,"Candida dubliniensis, read-out: Geometric Mean MIC",0.107 µg/mL
same,MIC,"Candida dubliniensis, read-out: MIC[90]",0.5 µg/mL
same,MIC,"Candida tropicalis, read-out: Geometric Mean MIC",0.167 µg/mL
same,MIC,"Candida tropicalis, read-out: MIC[90]",0.5 µg/mL
same,MIC,"Clavispora lusitaniae, Candida lusitaniae, read-out: Geometric Mean MIC",0.216 µg/mL
same,MIC,"Clavispora lusitaniae, Candida lusitaniae, read-out: MIC[90]",1 µg/mL
same,MIC,"Coccidioides immitis, read-out: Geometric Mean MIC, Coccidioides immitis",0.198 µg/mL
same,MIC,"Coccidioides immitis, read-out: MIC[90], Coccidioides immitis",0.25 µg/mL
same,MIC,"Cryptococcus neoformans, read-out: Geometric Mean MIC",0.444 µg/mL
same,MIC,"Cryptococcus neoformans, read-out: MIC[90]",4 µg/mL
same,MIC,"Curvularia spp, read-out: Geometric Mean MIC",0.5 µg/mL
same,MIC,"Curvularia spp, read-out: MIC[90]",0.5 µg/mL
same,MIC,"Debaryomyces hansenii, Candida famata, read-out: Geometric Mean MIC",0.348 µg/mL
same,MIC,"Debaryomyces hansenii, Candida famata, read-out: MIC[90]",1 µg/mL
same,MIC,"Diutina rugosa, Candida rugosa, read-out: Geometric Mean MIC",0.196 µg/mL
same,MIC,"Diutina rugosa, Candida rugosa, read-out: MIC[90]",4 µg/mL
same,MIC,"Dujonia zeylanoides, Candida zeylanoides, read-out: Geometric Mean MIC",0.105 µg/mL
same,MIC,"Dujonia zeylanoides, Candida zeylanoides, read-out: MIC[90]",0.031 to 0.5 µg/mL
same,MIC,"Epidermophyton floccosum, read-out: Geometric Mean MIC",0.088 µg/mL
same,MIC,"Epidermophyton floccosum, read-out: MIC[90]",32 µg/mL
same,MIC,"Exophiala dermatidis, read-out: Geometric Mean MIC",1 µg/mL
same,MIC,"Exophiala dermatidis, read-out: MIC[90]",1 µg/mL
same,MIC,"Exophiala dermatitidis, Wangiella dermatitidis, read-out: Geometric Mean MIC",0.5 µg/mL
same,MIC,"Exophiala dermatitidis, Wangiella dermatitidis, read-out: MIC[90]",0.063 to 1 µg/mL
same,MIC,"Exophiala jeanselmei, read-out: Geometric Mean MIC",0.467 µg/mL
same,MIC,"Exophiala jeanselmei, read-out: MIC[90]",1 µg/mL
same,MIC,"Exophiala moniliae, read-out: Geometric Mean MIC",0.031 µg/mL
same,MIC,"Exophiala moniliae, read-out: MIC[90]",0.031 µg/mL
same,MIC,"Fonsecae pedrosoi, read-out: Geometric Mean MIC",0.063 µg/mL
same,MIC,"Fonsecae pedrosoi, read-out: MIC[90]",0.008 to 0.5 µg/mL
same,MIC,"Fusarium spp, read-out: Geometric Mean MIC",13.3 µg/mL
same,MIC,"Fusarium spp, read-out: MIC[90]",16 µg/mL
same,MIC,"Hansenula anomala, Pichia anomala, read-out: Geometric Mean MIC",0.375 µg/mL
same,MIC,"Hansenula anomala, Pichia anomala, read-out: MIC[90]",1 µg/mL
same,MIC,"Histoplasma capsulatum, read-out: Geometric Mean MIC, Histoplasma capsulatum",0.018 µg/mL
same,MIC,"Histoplasma capsulatum, read-out: MIC[90], Histoplasma capsulatum",0.063 µg/mL
same,MIC,"Kluyveromyces marxianus, Candida kefyr, read-out: Geometric Mean MIC",0.188 µg/mL
same,MIC,"Kluyveromyces marxianus, Candida kefyr, read-out: MIC[90]",0.5 µg/mL
same,MIC,"Kluyveromyces marxianus, read-out: Geometric Mean MIC",0.07 µg/mL
same,MIC,"Kluyveromyces marxianus, read-out: MIC[90]",0.031 to 0.125 µg/mL
same,MIC,"Lodderomyces parapsilosis, Candida parapsilosis, read-out: Geometric Mean MIC",0.161 µg/mL
same,MIC,"Lodderomyces parapsilosis, Candida parapsilosis, read-out: MIC[90]",0.5 µg/mL
same,MIC,"Meyerozyma guilliermondii, Candida guilliermondii, read-out: Geometric Mean MIC",0.479 µg/mL
same,MIC,"Meyerozyma guilliermondii, Candida guilliermondii, read-out: MIC[90]",1 µg/mL
same,MIC,"Microsporum audouinii, read-out: Geometric Mean MIC",0.125 µg/mL
same,MIC,"Microsporum audouinii, read-out: MIC[90]",0.125 µg/mL
same,MIC,"Microsporum canis, read-out: Geometric Mean MIC",0.041 µg/mL
same,MIC,"Microsporum canis, read-out: MIC[90]",2 µg/mL
same,MIC,"Mucor spp, read-out: Geometric Mean MIC",2.38 µg/mL
same,MIC,"Mucor spp, read-out: MIC[90]",16 µg/mL
same,MIC,"Nakaseomyces glabratus, Candida glabrata, read-out: Geometric Mean MIC",0.853 µg/mL
same,MIC,"Nakaseomyces glabratus, Candida glabrata, read-out: MIC[90]",4 µg/mL
same,MIC,"Nannizzia fulva, Microsporum fulvum, read-out: Geometric Mean MIC",4 µg/mL
same,MIC,"Nannizzia fulva, Microsporum fulvum, read-out: MIC[90]",4 µg/mL
same,MIC,"Nannizzia gypsea, Microsporum gypseum, read-out: Geometric Mean MIC",0.044 µg/mL
same,MIC,"Nannizzia gypsea, Microsporum gypseum, read-out: MIC[90]",0.016 to 0.5 µg/mL
same,MIC,"Nannizzia persicolor, Microsporum persicolor, read-out: Geometric Mean MIC",0.5 µg/mL
same,MIC,"Nannizzia persicolor, Microsporum persicolor, read-out: MIC[90]",0.5 µg/mL
same,MIC,"Paecilomyces spp, read-out: Geometric Mean MIC",0.64 µg/mL
same,MIC,"Paecilomyces spp, read-out: MIC[90]",2 µg/mL
same,MIC,"Papiliotrema laurentii, Cryptococcus laurentii, read-out: Geometric Mean MIC",0.397 µg/mL
same,MIC,"Papiliotrema laurentii, Cryptococcus laurentii, read-out: MIC[90]",0.25 to 0.5 µg/mL
same,MIC,"Paracoccidioides brasiliensis, read-out: Geometric Mean MIC, Paracoccidioides brasiliensis",0.025 µg/mL
same,MIC,"Paracoccidioides brasiliensis, read-out: MIC[90], Paracoccidioides brasiliensis",0.063 µg/mL
same,MIC,"Penicillium spp, read-out: Geometric Mean MIC",0.853 µg/mL
same,MIC,"Penicillium spp, read-out: MIC[90]",2 µg/mL
same,MIC,"Pichia kudriavzevii, Candida krusei, read-out: Geometric Mean MIC",0.576 µg/mL
same,MIC,"Pichia kudriavzevii, Candida krusei, read-out: MIC[90]",1 µg/mL
same,MIC,"Pleurothecium obovoideum, Ramichloridium obovoideum, read-out: Geometric Mean MIC",0.016 µg/mL
same,MIC,"Pleurothecium obovoideum, Ramichloridium obovoideum, read-out: MIC[90]",0.016 µg/mL
same,MIC,"Rhizomucor spp, read-out: Geometric Mean MIC",0.016 µg/mL
same,MIC,"Rhizomucor spp, read-out: MIC[90]",0.016 µg/mL
same,MIC,"Rhizopus spp, read-out: Geometric Mean MIC",3.28 µg/mL
same,MIC,"Rhizopus spp, read-out: MIC[90]",16 µg/mL
same,MIC,"Saccharomyces cerevisiae, read-out: Geometric Mean MIC",0.418 µg/mL
same,MIC,"Saccharomyces cerevisiae, read-out: MIC[90]",2 µg/mL
same,MIC,"Scedosporium apiospermum, read-out: Geometric Mean MIC",1.34 µg/mL
same,MIC,"Scedosporium apiospermum, read-out: MIC[90]",32 µg/mL
same,MIC,"Scedosporium boydii, Pseudallescheria boydii, read-out: Geometric Mean MIC",0.506 µg/mL
same,MIC,"Scedosporium boydii, Pseudallescheria boydii, read-out: MIC[90]",1 µg/mL
same,MIC,"Sporothrix schenckii, read-out: Geometric Mean MIC",0.302 µg/mL
same,MIC,"Sporothrix schenckii, read-out: MIC[90]",0.5 µg/mL
same,MIC,"Trichophyton mentagrophytes, read-out: Geometric Mean MIC",0.041 µg/mL
same,MIC,"Trichophyton mentagrophytes, read-out: MIC[90]",0.25 µg/mL
same,MIC,"Trichophyton rubrum, Trichophyton raubitschekii, read-out: Geometric Mean MIC",0.25 µg/mL
same,MIC,"Trichophyton rubrum, Trichophyton raubitschekii, read-out: MIC[90]",0.25 µg/mL
same,MIC,"Trichophyton rubrum, read-out: Geometric Mean MIC",0.074 µg/mL
same,MIC,"Trichophyton rubrum, read-out: MIC[90]",0.25 µg/mL
same,MIC,"Trichophyton soudanense, read-out: Geometric Mean MIC",4 µg/mL
same,MIC,"Trichophyton soudanense, read-out: MIC[90]",4 µg/mL
same,MIC,"Trichophyton tonsurans, read-out: Geometric Mean MIC",0.036 µg/mL
same,MIC,"Trichophyton tonsurans, read-out: MIC[90]",0.063 µg/mL
same,MIC,"Trichosporon spp, read-out: Geometric Mean MIC",1.12 µg/mL
same,MIC,"Trichosporon spp, read-out: MIC[90]",0.5 to 2 µg/mL
